# Laboratory results taken from patent US4731451A, “N-((2-oxo-3(2H)benzothiazolyl)methyl)-2-chloroacetanilides” (Monsanto Company, priority 1980, dated 1988).
# How the values were obtained:
# Assay in all cases: Pre-emergent herbicidal activity (Table II)
# Format in all cases: in vivo
# Details in all cases: 2-3 weeks
# Barnyardgrass = system: Barnyardgrass
# Description: (§1) The pre-emergence tests are conducted as follows:
# (§2) A good grade of top soil is placed in aluminum pans and compacted to a depth of three-eighths to one-half inch from the top of the pan. On the top of the soil is placed a predetermined number of seeds or vegetative propagules of various plant species. The soil required to level fill the pans after seeding or adding vegetative propagules is weighed into a pan. A known amount of the active ingredient applied in a solvent or as a wettable powder suspension and the soil are thoroughly mixed, and used as a cover layer for prepared pans. After treatment, the pans are moved into a greenhouse bench where they are watered from below as needed to give adequate moisture for germination and growth.
# (§3) Approximately 2-3 weeks after seeding and treating, the plants are observed and the results recorded. The herbicidal rating is obtained by means of fixed scale based on the percent injury of each plant species. The ratings are defined as follows: […]
# (§4) The plant species utilized in one set of tests, the data for which are shown in Table II, are identified by letter in accordance with the following legend: […]
# Canada Thistle = system: Canada Thistle
# Description: as §1, §2, §3, §4
# Cocklebur = system: Cocklebur
# Description: as §1, §2, §3, §4
# Downy Brome = system: Downy Brome
# Description: as §1, §2, §3, §4
# Johnsongrass = system: Johnsongrass
# Description: as §1, §2, §3, §4
# Lambsquarters = system: Lambsquarters
# Description: as §1, §2, §3, §4
# Morningglory = system: Morningglory
# Description: as §1, §2, §3, §4
# Quackgrass = system: Quackgrass
# Description: as §1, §2, §3, §4
# Smartweed = system: Smartweed
# Description: as §1, §2, §3, §4
# Velvetleaf = system: Velvetleaf
# Description: as §1, §2, §3, §4
# Yellow Nutsedge = system: Yellow Nutsedge
# Description: as §1, §2, §3, §4
# Further: ranges in brackets are in %.
Compound,Herbicidal rating (Barnyardgrass; 5.6 kg/ha),Herbicidal rating (Barnyardgrass; 11.2 kg/ha),Herbicidal rating (Canada Thistle; 5.6 kg/ha),Herbicidal rating (Canada Thistle; 11.2 kg/ha),Herbicidal rating (Cocklebur; 5.6 kg/ha),Herbicidal rating (Downy Brome; 5.6 kg/ha),Herbicidal rating (Downy Brome; 11.2 kg/ha),Herbicidal rating (Johnsongrass; 5.6 kg/ha),Herbicidal rating (Johnsongrass; 11.2 kg/ha),Herbicidal rating (Lambsquarters; 5.6 kg/ha),Herbicidal rating (Lambsquarters; 11.2 kg/ha),Herbicidal rating (Morningglory; 5.6 kg/ha),Herbicidal rating (Morningglory; 11.2 kg/ha),Herbicidal rating (Quackgrass; 5.6 kg/ha),Herbicidal rating (Quackgrass; 11.2 kg/ha),Herbicidal rating (Smartweed; 5.6 kg/ha),Herbicidal rating (Smartweed; 11.2 kg/ha),Herbicidal rating (Velvetleaf; 5.6 kg/ha),Herbicidal rating (Velvetleaf; 11.2 kg/ha),Herbicidal rating (Yellow Nutsedge; 5.6 kg/ha),further results
"CC1=C(N(Cn2c(=O)oc3ccccc32)C(=O)CCl)C(C)CCC1 (centres unmarked) [Example 11, N--[(2-oxo-3(2H)--benzoxazolyl)methyl]-N--(2,6-dimethyl-1-cyclohexen-1-yl)-2-chloro-amide]",3 (75-100),3 (75-100),0 (0-24),0 (0-24),0 (0-24),3 (75-100),3 (75-100),0 (0-24),0 (0-24),2 (50-74),1 (25-49),0 (0-24),0 (0-24),1 (25-49),3 (75-100),0 (0-24),0 (0-24),0 (0-24),0 (0-24),3 (75-100),Herbicidal rating (Cocklebur; 11.2 kg/ha): 0 (0-24); Herbicidal rating (Yellow Nutsedge; 11.2 kg/ha): 1 (25-49)
"CC1=C(N(Cn2c(=O)sc3cc(Br)ccc32)C(=O)CCl)C(C)CCC1 (centres unmarked) [Example 7, N--[(6-bromo-2-oxo-3(2H)--benzothiazolyl)methyl]-N--(2,6-dimethyl-1-cyclohexen-1-yl)-2-chloroacetamide]",1 (25-49),1 (25-49),0 (0-24),0 (0-24),0 (0-24),0 (0-24),0 (0-24),0 (0-24),0 (0-24),0 (0-24),1 (25-49),0 (0-24),0 (0-24),0 (0-24),0 (0-24),0 (0-24),0 (0-24),0 (0-24),0 (0-24),0 (0-24),Herbicidal rating (Cocklebur; 11.2 kg/ha): 0 (0-24); Herbicidal rating (Yellow Nutsedge; 11.2 kg/ha): 0 (0-24)
"CCOc1ccc2c(c1)sc(=O)n2CN(C(=O)CCl)C1=C(C)C(C)CCC1 (centres unmarked) [Example 8, N--[(6-ethoxy-2-oxo-3(2H)--benzothiazolyl)methyl]-N--(2,3-dimethyl-1-cyclohexen-1-yl)-2-chloroacetamide]",1 (25-49),0 (0-24),0 (0-24),0 (0-24),0 (0-24),0 (0-24),0 (0-24),0 (0-24),0 (0-24),0 (0-24),0 (0-24),0 (0-24),0 (0-24),0 (0-24),0 (0-24),0 (0-24),0 (0-24),0 (0-24),0 (0-24),0 (0-24),Herbicidal rating (Yellow Nutsedge; 11.2 kg/ha): 0 (0-24)
